In PubChem BioAssay AID2305 (GlaxoSmithKline (GSK), 2010):
Where “and” joins values, the source holds several entries; their conditions need not be identical. Identical values can stand only once.

What follows are molecules tested on P. falciparum 3D7 growth, pLDH absorbance (assay: blood-stage malaria parasite growth potency – strain 3D7, dose response (AID 2305)).
With `CCCCOc1cc(CNCCCCCCNCc2cc(OCCCC)cc3ccccc23)c2ccccc2c1` the IC50 was 740 nM. Work on `c1ccc(-c2nc3ccccc3[nH]2)c(Nc2ccnc3cc(-c4nccs4)ccc23)c1` yielded an IC50 of 740 nM. With `CC1(C)N=C(N)N=C(N)C1c1ccc(Cl)cc1` (stereo not drawn) the IC50 was 260 nM. Molecule `S=c1nc(-c2ccccc2)n2ccsc2n1` has an IC50 of 180 nM. In the case of `CS(=O)(=O)CCNCc1cccc(-c2cc3c(Nc4ccc(OCc5cccc(F)c5)c(Cl)c4)ncnc3s2)c1`, the IC50 is reported as 200 nM. For `COc1c(C2CCN(CCCCNC(=O)c3ccc(NC(=O)c4ccc(C#N)cc4)cc3)CC2)ccc2c1CCCC2`, the IC50 was 290 nM. With `O=C(CCc1ccco1)NC1CCN(CC2(c3ccc(Cl)cc3)CCC2)CC1` the IC50 was 1450 nM. For `O=C(CCC(=O)c1ccc2c3c(cccc13)CC2)NC1CCC(CN2CCC(c3c[nH]c4ccccc34)CC2)CC1` (stereo not drawn), the IC50 was 920 nM. In the case of `COC(=O)Nc1ccc(-c2ccc(C(=O)NC3CCN(C[C@H](O)c4ccnc5ccc(OC)cc45)CC3)cc2)c(C)c1`, the IC50 is reported as 690 nM. Molecule `COc1cc(C(=O)NC2CCN(Cc3ccccc3)CC2)ccc1-c1cc2cc(Cl)c(Cl)cc2[nH]1` has an IC50 of 230 nM. For `O=S(=O)(Nc1cccc(CCN2CCC(N3CCCCC3)CC2)c1)c1ccc(Oc2ccccc2)nc1`, the IC50 was 930 nM. Work on `CC(CO)(CO)NCc1cc2ccc3ccsc3c2c2ccccc12` yielded an IC50 of 230 nM. Work on `Nc1nc(N)c(-c2ccccc2)c(=O)[nH]1` yielded an IC50 of 1000 nM. Work on `COc1ccc(CNCc2cccc(-c3csc(-c4nc5ccccc5[nH]4)c3)c2)cc1` yielded an IC50 of 650 nM. For `Nc1cccc(CNCc2ccc(-c3cccc(-c4nc5ccc(F)cc5[nH]4)c3)cc2)c1`, the IC50 was 210 nM. `COc1ccc2nccc([C@@H](O)CN3CCC(NCc4ccc5c(c4)NC(=O)CS5)CC3)c2n1` showed an IC50 of 750 nM. `CC(Nc1nncc(-c2cccc(F)c2)n1)c1ccc(F)cc1` (stereo not drawn) gave an IC50 of 790 nM. For `c1ccc(C23N=C(Nc4nc5ccccc5[nH]4)NC2(c2ccccc2)NC(Nc2nc4ccccc4[nH]2)=N3)cc1` (stereo not drawn), the IC50 was 280 nM. Work on `CC(CN(C)C)C(=O)Nc1cccc(-c2ccc(-c3nc4ccc(C(F)(F)F)cc4[nH]3)cc2)c1` (stereo not drawn) yielded an IC50 of 250 nM. `CCCC(C)Nc1nc(C)cc(N[C@@H](Cc2ccccc2)C(=O)Nc2ccccc2)n1` (stereo partly drawn) was tested, and the IC50 was 860 nM. With `Nc1nc(N)c2c(ccc3c2cnn3Cc2cccnc2)n1` the IC50 was 50 nM. Work on `O=C(NC1CCCCC1)c1csc(C2CCCN(C(=O)c3ccc(O)c(-c4cccc(C(F)(F)F)c4)c3)C2)n1` (stereo not drawn) yielded an IC50 of 1670 nM. Molecule `CC(C)Cc1nc(N)nc(N)c1-c1ccc(Cl)cc1` has an IC50 of 140 nM. `O=c1[nH]c2c(c(O)c1[N+](=O)[O-])CCC2` showed an IC50 of 1050 nM. Work on `Cc1cccc2[nH]c(-c3ccc(-c4ccc(NC(=O)NCc5cccc(F)c5)cc4)s3)nc12` yielded an IC50 of 890 nM. Molecule `CCCOc1ccc(C=C(CC(=O)O)c2nc3ccccc3s2)cc1OCC` has an IC50 of 550 nM. `Cn1nccc1C(=O)NCCNCc1ccc(-c2ccc(-c3nc4ccc(C(F)(F)F)cc4[nH]3)cc2)cc1` gave an IC50 of 150 nM. `COc1ccc2nc3cc(Cl)ccc3c(NCCCCCCNc3c4ccc(Cl)cc4nc4ccc(OC)cc34)c2c1` was tested, and the IC50 was 660 nM. For `NC(N)=NN=CC(=O)Nc1ccc(Br)cc1`, the IC50 was 880 nM. For `Oc1ccc2ccccc2c1CNCC1CCCCC1`, the IC50 was 670 nM. Work on `CCc1ccc(CC(C)NCC(O)c2ccccc2)cc1` (stereo not drawn) yielded an IC50 of 890 nM. With `O=C(Nc1ccc(Cl)cc1)OCCn1nnnc1C(c1ccc(Cl)cc1)N1CCOCC1` (stereo not drawn) the IC50 was 1180 nM. `CN(C)CCN(C)Cc1ccc(-c2cccc(-c3nc4ccccc4[nH]3)c2)cc1` showed an IC50 of 750 nM. Work on `COc1cc2c(cc1C(F)(F)F)N(C(=O)Nc1cc(OC(F)(F)F)cc(-c3cccnc3)c1)CC2` yielded an IC50 of 40 nM. `CN1[C@@H]2CC[C@H]1c1cc(NC(=O)c3cc(-c4ccc(Cl)cc4)cs3)ccc12` gave an IC50 of 1300 nM. Work on `CN1CCc2cc(Br)c(O)cc2C1Cc1ccccc1Cl` (stereo not drawn) yielded an IC50 of 670 nM. With `CCCN(Cc1nnc(-c2ccco2)o1)C(=O)C1CCN(c2ncc(C(F)(F)F)cc2Cl)CC1` the IC50 was 690 nM. Work on `CN(C)CCNC(=O)c1ccc2c(c1)n(C1CCN(S(=O)(=O)c3ccc(-c4ccccc4)cc3)CC1)c(=O)n2CC1CCCCC1` yielded an IC50 of 620 nM. Work on `CN1C(=O)C(=O)N(CCCCCON=C(N)N)C1=S` yielded an IC50 of 200 nM. `CC(C)NCc1ccc(-c2ccc(CN3CCCC(c4ccccc4)C3)cc2)c(C(=O)NC2Cc3ccccc3C2)c1` (stereo not drawn) gave an IC50 of 990 nM. In the case of `CON=Cc1ccn(-c2ccc(O)c3c2C[C@H]2C[C@H]4[C@H](N(C)C)C(=O)C(C(N)=O)=C(O)[C@@]4(O)C(=O)C2=C3O)c1`, the IC50 is reported as 770 nM. In the case of `N#Cc1cccc(Nc2nccc(Nc3ccc(Oc4ccccc4)cc3)n2)c1`, the IC50 is reported as 830 nM. Molecule `CCn1c(Sc2ccc(C#N)c([N+](=O)[O-])c2)nnc1-c1cccc(Cl)c1` has an IC50 of 450 nM. Work on `c1cc2nc(CCCc3nc4ccc(C5=N[C@H]6CCCC[C@H]6N5)cc4[nH]3)[nH]c2cc1C1=N[C@@H]2CCCC[C@@H]2N1` yielded an IC50 of 1240 nM. `N=C(N)c1cccc(OCCCOc2cccc(NC(=O)Nc3ccc([N+](=O)[O-])cc3)c2)c1` gave an IC50 of 860 nM. For `NOCCCOc1ccc(Cl)cc1`, the IC50 was 570 nM. With `Cc1ccc2[nH]cc(C3CCN(CC4CCC(NC(=O)/C=C/c5ccc(Cl)c(Cl)c5)CC4)CC3)c2c1` (stereo not drawn) the IC50 was 840 nM and 550 nM. With `Cc1ccc2nc(C)n(C3CCN(C(=O)C4(c5ccccc5)CC4)CC3)c2c1` the IC50 was 820 nM. `COc1ccc(CCc2ccc(-c3c(C)[nH]c(C)c(Cl)c3=O)cc2)cc1OC` showed an IC50 of 90 nM. For `O=C(NC1CCN(Cc2ccc3c(c2)OCCO3)CC1)c1ccc(-c2cccc(Cl)c2)s1`, the IC50 was 1910 nM. Molecule `CCCCCCN1CCCN(Cc2cccc(C(=O)Nc3ccc(C(C)(C)C)cc3)c2)CC1` has an IC50 of 940 nM. In the case of `CCc1nc2nc(C)cc(Nc3ccc(F)c(Cl)c3)n2n1`, the IC50 is reported as 970 nM. `COc1cccc(NC(=O)NC2CCN(CCCCCNC(=O)/C=C/c3ccc(Cl)c(Cl)c3)CC2)c1` gave an IC50 of 780 nM. `O=C1COc2ccccc2N1C/C=C(\CN1CCC(c2ccccc2)CC1)c1cc(Cl)cc(Cl)c1` gave an IC50 of 210 nM. With `CC[C@H](C)CNC(=O)c1cncc(-c2cccc(CNCCCc3ccccc3)c2)c1` the IC50 was 1170 nM. Work on `Cc1cccc2[nH]c(-c3ccc(-c4cccc(C(=O)NCCc5cn(C)cn5)c4)s3)nc12` yielded an IC50 of 880 nM. Molecule `CN1CCCC(CN2CCN(Cc3cccc(-c4cccc(-c5nc6ccccc6[nH]5)c4)c3)CC2)C1` (stereo not drawn) has an IC50 of 140 nM. `CC(Cc1ccc(CN(CC(N)=O)Cc2ccc(CC(C)NCCc3cccc(Cl)c3)cc2)cc1)NCCc1cccc(Cl)c1` (stereo not drawn) showed an IC50 of 670 nM. In the case of `Nc1nc2c(c(=O)[nH]1)-c1cccc(Br)c1CC2`, the IC50 is reported as 700 nM. `O=C(Nc1ccc(Oc2ccccc2)cc1)N[C@@H](Cc1ccc(O)cc1)C(=O)NC1CCN(Cc2ccc(O)c([N+](=O)[O-])c2)C1` (stereo partly drawn) was tested, and the IC50 was 1510 nM. `CC(C)N1CCC(N(Cc2ccc(-c3ccc(C(F)(F)F)cc3)cc2)C(=O)Cn2c(CCc3cccc(F)c3F)nc(=O)c3cccnc32)CC1` was tested, and the IC50 was 640 nM. Molecule `O=S(=O)(Nc1cccc(F)c1CNCc1ccccn1)c1ccc(Cl)c(Cl)c1` has an IC50 of 890 nM. Work on `CCOC(=O)C1=C(C)NC2=C(C(=O)CCC2)C1c1cn(Cc2ccc(Cl)cc2Cl)nc1-c1ccccc1` (stereo not drawn) yielded an IC50 of 620 nM. `CCC(C)NS(=O)(=O)c1ccc2nc(Nc3ccc(C)cc3)n(C3CCCCC3)c2c1` (stereo not drawn) gave an IC50 of 460 nM. In the case of `Nc1ccc(-c2nc3c(ccc4ccccc43)[nH]2)cc1`, the IC50 is reported as 940 nM. `CCCC(=O)c1c(O)c2ccccc2oc1=O` showed an IC50 of 260 nM. Molecule `CCOc1ccc2c(NN=Cc3cccc([N+](=O)[O-])c3)cc(C)nc2c1` has an IC50 of 220 nM. `Cc1ccc(C(=O)NCC2CCN(c3ccc(C(F)(F)F)cc3NC(=O)c3ccco3)CC2)cn1` gave an IC50 of 780 nM. `Cn1cccc1C(=O)NCC(CCNc1cc(=O)c2ccccc2[nH]1)NCc1cc(Br)cc(Br)c1` (stereo not drawn) gave an IC50 of 910 nM. Work on `CN(C)CCOc1ccc(-c2cc(-c3ccnc(N)n3)c(-c3ccc(Cl)c(O)c3)o2)cc1` yielded an IC50 of 980 nM. `COc1ccc(Nc2ncc3c(-c4cccc(NC(=O)c5ccccc5)c4)c[nH]c3n2)cc1OC` showed an IC50 of 460 nM. `CCOC(=O)c1c(C)n(C2CCCCCC2)c2cc(Br)c(O)cc12` was tested, and the IC50 was 1200 nM. In the case of `CCc1nn2c(Nc3ccncc3)cc(C)nc2c1-c1ccccc1`, the IC50 is reported as 200 nM. `Nc1c2ccccc2nc2ccc(-c3ccccc3)cc12` showed an IC50 of 140 nM. With `O=C(Nc1cccc(C(F)(F)F)c1)c1cccc(S(=O)(=O)NCC2CCCN2CC2CCCCC2)c1` (stereo not drawn) the IC50 was 1110 nM. In the case of `CCOC(=O)c1c(NC(=O)c2ccccc2)sc2c(O)c(CN(CC)CC)ccc12`, the IC50 is reported as 970 nM. For `CCCN(CC1CC1)c1ncc(-c2cccc(CNCCC3CCCN3C)c2)cn1` (stereo not drawn), the IC50 was 750 nM. In the case of `COc1cc(NC(=O)NC(CCN2CCC3(CCc4ccccc43)CC2)c2ccc(Cl)c(Cl)c2)cc(OC)c1OC` (stereo not drawn), the IC50 is reported as 680 nM. `O=C(NCc1cccc2ccccc12)[C@@H]1CCCN1C(=O)c1ccc(O)c(-c2ccc(Cl)c(Cl)c2)c1` showed an IC50 of 950 nM. Molecule `O=S(=O)(NCCN1CCCC1)c1ccc(-c2ccc(CNC3Cc4ccccc4C3)cc2)s1` has an IC50 of 590 nM. `Cc1[nH]cc(Br)c(=O)c1-c1ccc(Oc2ccc(OC(F)(F)F)cc2)cc1` gave an IC50 of 330 nM. `COc1ccc2ccccc2c1CON1C(N)=NC(N)=NC1(C)C` gave an IC50 of 30 nM. `CNC(=O)C1Cc2c([nH]c3ccc(Br)cc23)C2(CCN(CCc3ccccc3)CC2)N1` (stereo not drawn) showed an IC50 of 920 nM. Molecule `OCC1CCN(Cc2ccc(-c3cccc(-c4nc5ccc(F)cc5[nH]4)c3)cc2)CC1` has an IC50 of 910 nM. `C[C@@H]1CN(C(c2cccc(O)c2)c2cccc(C(=O)N(C)c3cccc(F)c3)c2)[C@@H](C)CN1C(c1cccc(O)c1)c1cccc(C(=O)N(C)c2cccc(F)c2)c1` (stereo partly drawn) showed an IC50 of 920 nM. For `CN1CCC(NCc2ccc(-c3ccc(Cl)cc3)cc2)CC1`, the IC50 was 750 nM. In the case of `O=C(/C=C/c1ccc(Cl)c(Cl)c1)NCCCCCN1CCCN(C(=O)Nc2cccc(F)c2)CC1`, the IC50 is reported as 760 nM. `NC(=O)c1c(Cl)nc2ccccc2c1Cl` gave an IC50 of 960 nM. Work on `COc1ccc(Nc2nccc(-c3c(-c4cccc(NC(=O)c5c(F)cccc5F)c4)nn4ccccc34)n2)cc1Cl` yielded an IC50 of 280 nM. In the case of `O=C(N[C@@H](Cc1ccccc1)[C@H](O)CNC1CCc2ccccc2C1)c1cc(C2CCCC2)cc(N2CCCC2=O)c1` (stereo partly drawn), the IC50 is reported as 160 nM. Work on `O=C(Nc1cccc(C(F)(F)F)c1)Nc1nc2ccc([N+](=O)[O-])cc2s1` yielded an IC50 of 690 nM. Work on `COc1ccc(Oc2ccc(-c3c(C)[nH]c(C)c(Cl)c3=O)cc2)cc1` yielded an IC50 of 140 nM. In the case of `Clc1ccc(-c2cnc3ccc(NCCc4cccnc4)nn23)cc1`, the IC50 is reported as 860 nM. In the case of `O=C(Nc1cccc(C(F)(F)F)c1)c1cc([N+](=O)[O-])cc2cn[nH]c12`, the IC50 is reported as 990 nM. Work on `Cc1ccc(Nc2nccc(NCC(O)c3cccc(C(F)(F)F)c3)n2)cc1` (stereo not drawn) yielded an IC50 of 680 nM. `CCCCCCNC(=O)C1Cc2c([nH]c3ccc(Br)cc23)C2(CCN(Cc3ccccc3)CC2)N1` (stereo not drawn) showed an IC50 of 720 nM. `COc1ccc(-c2ccc(NC(=O)c3cccc(C#N)c3)cc2)cc1CN1CCCN(C)CC1` was tested, and the IC50 was 290 nM. For `O=C(/C=C/c1ccc(Cl)c(Cl)c1)N1CCC(C(O)CN2CCC(c3c[nH]c4ccccc34)CC2)CC1` (stereo not drawn), the IC50 was 860 nM.
